Test results published in patent publication US9821031B2, “Methods and compositions for treating hypoglycemic disorders” (priority 2007, dated 2017).
Entries after “also recorded” stand apart in the source; their conditions may differ. Marks after values point to notes of the source that are not given here.

Tests used:
[1] = tested on: SUR-1−/− islets; assay: Insulin secretion in static incubations of isolated islets; assay type: cell-based, mouse
[2] = tested on: wild-type littermates; assay: Fasting blood glucose during continuous subcutaneous exendin-(9-39) infusion; assay type: in vivo, mouse; settings: wild-type mice, 150 pmol/kg/min
Text: (§1) SUR-1^−/− mice were kindly provided by Dr. Mark A. Magnuson. The generation and genotyping of SUR-1^−/− mice were previously described (8). Mice are maintained in a C57B1/6 genetic background. Twelve to eighteen week SUR-1^−/− and wild-type littermate control mice were used in all experiments. Mice were maintained on a 12:12-h light-dark cycle and were fed a standard rodent chow diet. All procedures were approved and carried out according to the University of Pennsylvania Institutional Animal Care and Use Committee Guidelines. Alzet mini-osmotic pumps (model 2002; Alza, Palo Alto, Calif.) were implanted subcutaneously to deliver exendin-(9-39) (Bachem Bioscience, King of Prussia, Pa.) at a rate of 150 pmol/kg/min or vehicle (0.9% NaCl/1% BSA) for 2 weeks. For determination of fasting blood glucose levels mice were fasted for 12-16 hours. Oral glucose tolerance testing was carried after a 12-16 hour fast by administering 2 g/kg of dextrose by oral gavage (feeding needles; Popper and Sons, Inc., Hyde Park, N.Y.). For insulin tolerance testing mice received 0.5 units/kg of insulin intraperitoneally after a 4 hour fast. Blood glucose levels were measured using a hand-held glucose meter (FreeStyle; TheraSense, Alameda, Calif.). Insulin and glucagon were measured by ELISA (Mouse Endocrine Immunoassay Panel; Linco Research, Inc., St. Charles, Mo.). Twelve-18 week old male SUR-1^−/− and wildtype littermates underwent a baseline evaluation including fasting blood glucose measurements and oral glucose tolerance testing, followed by randomization to treatment with exendin-(9-39) (150 pmol/kg/min) or vehicle (0.9% NaCl, 1% BSA). Fasting blood glucose levels were determined after an overnight fast on days 3 and 7 of the infusion. In addition, oral glucose tolerance and insulin sensitivity were evaluated during treatment. […] After an oral load of glucose, SUR-1^−/− mice were glucose intolerant when compared to littermate wild-type controls (p<0.0001, repeated measures ANOVA) (FIG. 1C). The SUR-1^−/− mice have a significant impairment of insulin secretion in response to an oral glucose load (wildtype vs. SUR-1^−/−: p=0.02, repeated measures ANOVA) (FIG. 1D). Exendin-(9-39) was administered via an Azlet miniosmotic subcutaneous pump at a continuous infusion rate of 150 pmol/kg/min for 2 weeks. This dose was chosen based on results of a pilot study evaluating different doses previously shown to have an effect in normal humans and mice.

[3] = tested on: SUR-1−/− mice; assay: as above; assay type: in vivo, mouse; settings: for Fasting blood glucose levels: 150 pmol/kg/min s.c. pump, overnight fast
Text: as §1

[4] = tested on: wild-type littermates; assay: Oral glucose tolerance test; assay type: in vivo, mouse; settings: oral glucose 2 g/kg, during treatment (FIG. 4A)
Method: as §1, with “Alzet” for “SUR-1^−/− mice were kindly provided by Dr. Mark A. Magnuson. The generation and genotyping of SUR-1^−/− mice were previously described (8). Mice are maintained in a C57B1/6 genetic background. Twelve to eighteen week SUR-1^−/− and wild-type littermate control mice were used in all experiments. Mice were maintained on a 12:12-h light-dark cycle and were fed a standard rodent chow diet. All procedures were approved and carried out according to the University of Pennsylvania Institutional Animal Care and Use Committee Guidelines. Alzet”

[5] = tested on: SUR-1−/− mice; assay: Oral glucose tolerance test; assay type: in vivo, mouse
Method: as §1, with “Alzet” for “SUR-1^−/− mice were kindly provided by Dr. Mark A. Magnuson. The generation and genotyping of SUR-1^−/− mice were previously described (8). Mice are maintained in a C57B1/6 genetic background. Twelve to eighteen week SUR-1^−/− and wild-type littermate control mice were used in all experiments. Mice were maintained on a 12:12-h light-dark cycle and were fed a standard rodent chow diet. All procedures were approved and carried out according to the University of Pennsylvania Institutional Animal Care and Use Committee Guidelines. Alzet”

[6] = tested on: SUR-1−/− islets; assay: cAMP content determination in static incubations of isolated islets; assay type: cell-based, mouse
Method: Islets were isolated as above, hand-picked and cultured for three days. Cultured islets were preincubated in glucose free Krebs-Ringer bicarbonate buffer for 60 min, 100 nM exendin-(9-39) was added 30 min into the preincubation period. Then, islets were exposed to different treatments for an additional 30 min in the presence of 0.1 mM isobutyl-methylzanthine (IBMX). After incubation, islets were washed 2 times by cold glucose-free Hank's buffer. cAMP was measured in islet lysates by ELISA (GE/Amersham Biosciences, Piscataway, N.J.).

[7] = tested on: SUR-1−/− islets; assay: Islet perifusion, fuel-induced insulin secretion; assay type: cell-based, mouse; settings: perifused SUR-1−/− islets
Method: Islets were isolated by collagenase digestion and cultured for 3 days in RPMI 1640 medium containing 10 mM glucose. The culture medium was supplemented with 10% fetal bovine serum, 2 mM glutamine, 100 units/mL penicillin, and 50 μg/mL streptomycin. Islets were incubated at 37° C. in a 5% CO2, 95% air-humidified incubator. Batches of 100 cultured mouse islets were loaded onto a nylon filter in a chamber and perifused with Krebs-Ringer bicarbonate buffer (115 mM NaCl, 24 mM NaHCO3, 5 mM KCl, 1 mM MgCl2, 2.5 mM CaCl2, 10 mM HEPES, pH 7.4) with 0.25% bovine serum albumin at a flow rate of 2 mL/min. Perifusate solutions were gassed with 95% O2, 5% CO2 and maintained at 37° C. Islets were stimulated with a ramp of amino acids. The physiologic mixture of 19 amino acids when used at a maximum concentration of 12 mM (about 3 times physiological concentration) had the following composition (in mM): glutamine 2, alanine 1.25, arginine 0.53, aspartate 0.11, citrulline 0.27, glutamate 0.35, glycine 0.85, histidine 0.22, isoleucine 0.27, leucine 0.46, lysine 1.06, methionine 0.14, ornithine 0.20, phenylalanine 0.23, proline 1, serine 1.62, threonine 0.77, tryptophan 0.21, valine 0.57. Samples were collected every minute for insulin assays. Insulin was measured by radioimmunoassay (Linco Research Inc., St. Charles, Mo.).

[8] = tested on: SUR-1−/− mice; assay: Fasting hormonal profile (insulin, glucagon, insulin/glucose ratio); assay type: in vivo, mouse
Method: (§2) Alzet mini-osmotic pumps (model 2002; Alza, Palo Alto, Calif.) were implanted subcutaneously to deliver exendin-(9-39) (Bachem Bioscience, King of Prussia, Pa.) at a rate of 150 pmol/kg/min or vehicle (0.9% NaCl/1% BSA) for 2 weeks. For determination of fasting blood glucose levels mice were fasted for 12-16 hours. Oral glucose tolerance testing was carried after a 12-16 hour fast by administering 2 g/kg of dextrose by oral gavage (feeding needles; Popper and Sons, Inc., Hyde Park, N.Y.). For insulin tolerance testing mice received 0.5 units/kg of insulin intraperitoneally after a 4 hour fast. Blood glucose levels were measured using a hand-held glucose meter (FreeStyle; TheraSense, Alameda, Calif.). Insulin and glucagon were measured by ELISA (Mouse Endocrine Immunoassay Panel; Linco Research, Inc., St. Charles, Mo.).

[9] = tested on: SUR-1−/− and wild-type mice; assay: Insulin tolerance test (insulin sensitivity); assay type: in vivo, mouse; settings: insulin 0.5 units/kg i.p. after 4 hour fast, any of the treatment groups (FIG. 4B)
Method: as §2, with “Mo.). Twelve-18 week old male SUR-1^−/− and wildtype littermates underwent a baseline evaluation including fasting blood glucose measurements and oral glucose tolerance testing, followed by randomization to treatment with exendin-(9-39) (150 pmol/kg/min) or vehicle (0.9% NaCl, 1% BSA). Fasting blood glucose levels were determined after an overnight fast on days 3 and 7 of the infusion. In addition, oral glucose tolerance and insulin sensitivity were evaluated during treatment. […]” for “Mo.).”

[10] = tested on: SUR-1−/− islets; assay: Cytosolic free Ca2+ measurement (Fura-2); assay type: cell-based, mouse; settings: for Amino acid-stimulated rise in intracellular calcium: SUR-1−/− islets, amino acids 4 mM (FIG. 6)
Method: Mouse islets were isolated and cultured on poly-[…] coated glass coverslips under the same conditions as described above. The perifusion procedure and cytosolic-free Ca2+ ([Ca2+]i) measurement were described previously (24). In brief, the coverslip with attached islets was incubated with 15 μM Fura-2 acetoxymethylester (Molecular Probes, Eugene, Oreg.) in Krebs-Ringer bicarbonate buffer with 5 mM glucose for 35 min at 37° C. Islets were then perifused with Krebs-Ringer bicarbonate buffer with 0.25% bovine serum albumin at 37° C. at a flow rate of 2mL/min, while various agents were applied. [Ca2+]i was measured with a dual wavelength fluorescence microscope as previously described.

[11] = during treatment, SUR-1−/− and wild-type (FIG. 3A)

Substance: Exendin (9-39) [Exendin-(9-39)]
- Insulin Secretion ([1]; 100 nM exendin-(9-39) + 4 mM AAM (amino acid-stimulated), AAM alone 389 ± 17): 219 ± 14 ng/100 islets/30 min
- Insulin Secretion ([1]; 100 nM exendin-(9-39) + 4 mM AAM (amino acid-stimulated), AAM alone 389 ± 17, listed as exendin-(9-39)): 219±14 ng/100 islets/30 min
- Insulin Secretion ([1]; basal, 100 nM exendin-(9-39), baseline 221 ± 22): 126 ± 12^a ng/100 islets/30 min
- Insulin Secretion ([1]; basal, 100 nM exendin-(9-39), baseline 221 ± 22, listed as exendin-(9-39)): 126±12 ng/100 islets/30 min
- Fasting blood glucose levels vs. vehicle-treated wild type controls [2]: not different
- Fasting blood glucose levels ([3]; day 3, mean±SEM): 82.2 ± 6.3 mg/dL
- Fasting blood glucose levels ([3]; day 7, mean±SEM): 82 ± 4.7 mg/dL
- Effect on fasting blood glucose levels (in words) ([3]; 12-16 hour fast, day 7 (FIG. 2)): normalized
- Glucose tolerance [4]: no effect
- Glucose tolerance ([5]; oral glucose 2 g/kg, during treatment (FIG. 4A)): did not significantly impair; also recorded: did not influence
- Return to baseline blood glucose levels ([5]; oral glucose tolerance test, 120 minute time point): minor delay
- cAMP Content ([6]; 100 nM exendin-(9-39) + 4 mM AAM (amino acid-stimulated)): 52.5 ± 9.4^c pmol/100 islets
- cAMP Content ([6]; 100 nM exendin-(9-39) + 4 mM AAM (amino acid-stimulated), listed as exendin-(9-39)): 20.9±4.4 pmol/100 islets
- cAMP Content ([6]; basal, 100 nM exendin-(9-39), no exogenous GLP-1, glucose free KRBB, baseline 40.1 ± 4.2): 20.5 ± 2.3^a pmol/100 islets
- cAMP Content ([6]; basal, 100 nM exendin-(9-39), no exogenous GLP-1, glucose free KRBB, baseline 40.1 ± 4.2, listed as exendin-(9-39)): 20.5±2.3 pmol/100 islets
- Insulin response to KCl, presence vs. absence of exendin-(9-39) ([7]; 100 nM exendin-(9-39)): similar
- Insulin release in response to ramp of amino acid mixture ([7]; amino acids 0-12 mM, 100 nM exendin-(9-39) (FIG. 5)): blocked
- Insulin/glucose ratio ([8]; SUR-1−/− mice, WT vs. SUR-1−/− Ex-(9-39) p=0.32 (FIG. 3B)): normalized
- Fasting glucagon levels among treatment groups [8, 11]: not different
- Fasting insulin levels among treatment groups [8, 11]: not different
- Peripheral insulin sensitivity [9]: did not impact; also recorded: did not influence
- Basal intracellular calcium ([10]; SUR-1−/− islets (FIG. 6)): did not affect
- Amino acid-stimulated rise in intracellular calcium [10]: no effect
- Amino acid-stimulated rise in intracellular calcium ([10]; listed as exendin-(9-39)): did not impact
